# Test system: lipid peroxidation induced by iron
# Experiment: Inhibitory effect on iron-induced lipid peroxidation in rat brain homogenate (MDA measurement, N-methyl-2-phenylindole, Bioxytech LPO-586 Kit)
# Type: biochemical
# Details: FeCl2 400 μM, 30 min at 37° C., decrease of MDA vs DMSO control, absorption at 586 nm
# Procedure: The inhibitory effect of the present compounds on lipid peroxidation induced by iron was evaluated as follows:
# Rat brain was homogenized in Krebs buffer (15 mM HEPES, 10 mM glucose, 140 mM NaCl, 3.6 mM KCl, 1.5 mM CaCl2, 1.4 mM KH2PO4 and 0.7 mM MgCl, pH 7.4) and centrifuged at 12,000 rpm to obtain the supernatant serving as a raw material of lipid. To the brain homogenates, FeCl^2 was added to give a final concentration of 400 μM and allowed to stand for 30 min at 37° C. for promoting oxidation. Each of the compounds to be tested was added to give a concentration of 12.5 μM and a control group was solely added with dimethylsulfoxide (DMSO).
# When iron is added to brain homogenates, oxidation is promoted to increase the amount of malondialdehyde (MDA) as lipid peroxidation product. Therefore, in this Example, the level of lipid peroxidation was evaluated according to MDA measurement method. In general MDA measurement, the test sample is reacted with TBA (2-thiobarbituric acid) and the absorbance at 530 nm was measured. However, since such process includes a boiling step, it is unsuitable for dealing with test samples in large quantity. Therefore, in this Example, N-methyl-2-phenylindole was used as a color developing reagent in place of TBA so as to avoid boiling step. […] The inhibitory effect on lipid peroxidation of test compounds was evaluated by calculating the decreased level of MDA in percentage based on the amount of MDA in the control group. For the test compounds showing more than 80% inhibitory effect, the concentration-lipid peroxidation inhibition curves were plotted with reference to the decrease rate of MDA amount based on the amount of MDA in the control group and their IC50 values was calculated through least linear regression analysis.
# In addition, the representative antioxidants commercialized such as Promethazine, Trolox, Probucol and N-propyl gallate were examined in terms of 50% inhibition concentration (IC50) according to the above procedure and the results are shown in Table 4.
row,IC50 [µM],Structure (SMILES)
1,3.1,CCCCOC1c2cc(NC)ccc2OC(C)(C)C1OC(=O)c1ccco1 (centres unmarked) [Compound 5-1520]
2,10.2,"CC(CN1c2ccccc2Sc2ccccc21)N(C)C (centres unmarked) [Promethazine, reference compound]"
3,5.55,C#CCOC1C(OCC)c2cc(NCc3ccc(F)cc3)ccc2OC1(C)C (centres unmarked) [Compound 5-480]
4,3.03,CCNc1ccc2c(c1)C(OCC)C(OC(=O)CC(C)(C)C)C(C)(C)O2 (centres unmarked) [Compound 5-1562]
5,2.66,Cc1ccccc1COC1C(OC(C)C)c2cc(NCc3ccc(F)cc3)ccc2OC1(C)C (centres unmarked) [Compound 5-485]
6,0.91,CC(C)OC1c2cc(NCc3ccc(F)cc3)ccc2OC(C)(C)C1OCc1ccccc1Cl (centres unmarked) [Compound 5-486]
7,1.09,COC1c2cc(NCc3ccc(C)cc3)ccc2OC(C)(C)C1OC(=O)CC(C)(C)C (centres unmarked) [Compound 5-1832]
8,4.6,CC1(C)Oc2ccc(NCc3ccc(F)cc3)cc2C(OCc2ccccc2)C1OCc1cccc(Cl)c1 (centres unmarked) [Compound 5-519]
9,2.05,CCNc1ccc2c(c1)C(OCC)C(OC(=O)C1CCCCC1)C(C)(C)O2 (centres unmarked) [Compound 5-1563]
10,3.97,CC1(C)Oc2ccc(NCc3ccc(F)cc3)cc2C(OCc2ccccc2)C1OC(=O)c1ccc(F)cc1 (centres unmarked) [Compound 5-1808]
11,1.29,COC1c2cc(NCc3ccc(C)cc3)ccc2OC(C)(C)C1OC(=O)C=C(C)C (centres unmarked) [Compound 5-1834]
12,5.27,CNc1ccc2c(c1)C(OC)C(OC(=O)CC(C)(C)C)C(C)(C)O2 (centres unmarked) [Compound 5-1482]
13,6.34,CCCCOC1c2cc(NC)ccc2OC(C)(C)C1OC(=O)c1ccc(C)cc1 (centres unmarked) [Compound 5-1516]
14,4.12,CC(C)(C)CC(=O)OC1C(OCc2ccccc2)c2cc(NCc3ccc(F)cc3)ccc2OC1(C)C (centres unmarked) [Compound 5-1802]
15,3.56,CCCCOC1c2cc(NCc3ccc(F)cc3)ccc2OC(C)(C)C1OC(=O)c1ccc(OC)cc1 (centres unmarked) [Compound 5-1797]
16,2.24,CC(C)OC1c2cc(NCc3ccc(F)cc3)ccc2OC(C)(C)C1OCc1ccc2ccccc2c1 (centres unmarked) [Compound 5-490]
17,24.6,"Cc1c(C)c2c(c(C)c1O)CCC(C)(C(=O)O)O2 (centres unmarked) [Trolox, reference compound]"
18,0.12,C=CCOC1C(OCCCC)c2cc(NCc3ccc(F)cc3)ccc2OC1(C)C (centres unmarked) [Compound 5-511]
19,18.2,"CC(C)(Sc1cc(C(C)(C)C)c(O)c(C(C)(C)C)c1)Sc1cc(C(C)(C)C)c(O)c(C(C)(C)C)c1 [Probucol, reference compound]"
20,5.13,COC1c2cc(NCc3ccc(F)cc3)ccc2OC(C)(C)C1OC(=O)c1ccccc1 (centres unmarked) [Compound 5-1765]
21,6.36,CC1(C)Oc2ccc(NCc3ccc(F)cc3)cc2C(OCc2ccccc2)C1OC(=O)c1cccs1 (centres unmarked) [Compound 5-1809]
22,1.8,COC1c2cc(NCc3ccc(F)cc3)ccc2OC(C)(C)C1OC(=O)CC(C)(C)C (centres unmarked) [Compound 5-1762]
23,3.6,C#CCOC1C(OCCCC)c2cc(NCc3ccc(F)cc3)ccc2OC1(C)C (centres unmarked) [Compound 5-512]
24,9.45,C/C=C/COC1C(OCCCC)c2cc(NCc3ccc(F)cc3)ccc2OC1(C)C (centres unmarked) [Compound 5-510]
25,25,"CCCOC(=O)c1cc(O)c(O)c(O)c1 [N-propyl gallate, reference compound]"
26,6.21,C/C=C/COC1C(OCC)c2cc(NCc3ccc(F)cc3)ccc2OC1(C)C (centres unmarked) [Compound 5-478]
27,3.11,COC1c2cc(NCc3ccc(F)cc3)ccc2OC(C)(C)C1OC(=O)c1ccco1 (centres unmarked) [Compound 5-1770]
28,3.03,CCNc1ccc2c(c1)C(OCC)C(OC(=O)c1ccco1)C(C)(C)O2 (centres unmarked) [Compound 5-1570]
29,5.43,CCNc1ccc2c(c1)C(OC)C(OC(=O)CC(C)(C)C)C(C)(C)O2 (centres unmarked) [Compound 5-1552]
30,2.31,CCNc1ccc2c(c1)C(OC)C(OC(=O)c1ccco1)C(C)(C)O2 (centres unmarked) [Compound 5-1560]

# Further lines, the compound ahead of its results:
row,Structure (SMILES),IC50 [µM]
1,CCOC1c2cc(NCc3ccc(F)cc3)ccc2OC(C)(C)C1OCc1ccccc1 (centres unmarked) [Compound 5-465],6.41
2,CC1(C)Oc2ccc(NCc3ccccc3)cc2C(OCCc2ccccc2)C1OCc1ccc(Br)cc1F (centres unmarked) [Compound 5-313],1.44
3,C=CCOC1C(OCCCC)c2cc(NC)ccc2OC1(C)C (centres unmarked) [Compound 5-63],2.46
4,CCOC1c2cc(NCc3ccc(F)cc3)ccc2OC(C)(C)C1OCc1cccc(Cl)c1 (centres unmarked) [Compound 5-471],4.85
5,CC1(C)Oc2ccc(NCc3ccccc3)cc2C(OCCc2ccccc2)C1OCc1cccc(F)c1 (centres unmarked) [Compound 5-308],4.75
6,CNc1ccc2c(c1)C(OCc1ccccc1)C(OCc1ccc(Br)cc1F)C(C)(C)O2 (centres unmarked) [Compound 5-73],2.85
7,CCCCOC1c2cc(NC)ccc2OC(C)(C)C1OCc1ccc(Br)cc1F (centres unmarked) [Compound 5-57],4.37
8,C#CCOC1C(OCc2ccccc2)c2cc(NC)ccc2OC1(C)C (centres unmarked) [Compound 5-80],1.08
9,CCOC1c2cc(NCc3ccc(F)cc3)ccc2OC(C)(C)C1OCc1ccccc1Cl (centres unmarked) [Compound 5-470],4.15
10,CCCCOC1c2cc(NC)ccc2OC(C)(C)C1OCc1cccc(F)c1 (centres unmarked) [Compound 5-52],0.98
11,Cc1ccccc1COC1C(OCc2ccccc2)c2cc(NCc3ccccc3)ccc2OC1(C)C (centres unmarked) [Compound 5-293],3.68
12,CCOC1c2cc(NCc3ccc(F)cc3)ccc2OC(C)(C)C1OCc1ccc(C)cc1 (centres unmarked) [Compound 5-472],3.9
13,CCOC1c2cc(NCc3ccc(F)cc3)ccc2OC(C)(C)C1OCc1ccccc1C (centres unmarked) [Compound 5-469],4.38
14,CNc1ccc2c(c1)C(OCc1ccccc1)C(OCc1ccc3ccccc3c1)C(C)(C)O2 (centres unmarked) [Compound 5-74],3.6
15,CNc1ccc2c(c1)C(OCc1ccccc1)C(OCc1ccc(C(C)(C)C)cc1)C(C)(C)O2 (centres unmarked) [Compound 5-67],6.06
16,CNc1ccc2c(c1)C(OCCC1CCCCC1)C(OCc1ccc3ccccc3c1)C(C)(C)O2 (centres unmarked) [Compound 5-106],5.51
17,CCOC1c2cc(NCc3ccc(F)cc3)ccc2OC(C)(C)C1OCc1cccc(F)c1 (centres unmarked) [Compound 5-468],4.27
18,CNc1ccc2c(c1)C(OCCC1CCCCC1)C(OCc1ccc(C)cc1)C(C)(C)O2 (centres unmarked) [Compound 5-104],4.01
19,CC1(C)Oc2ccc(NCc3ccccc3)cc2C(OCc2ccccc2)C1OCc1cccc(Cl)c1 (centres unmarked) [Compound 5-295],1.29
20,CCCCCOC1C(OCC)c2cc(NCc3ccc(F)cc3)ccc2OC1(C)C (centres unmarked) [Compound 5-477],3.63
21,CCCCOC1c2cc(NC)ccc2OC(C)(C)C1OCc1ccc(F)cc1 (centres unmarked) [Compound 5-50],4.9

row,Structure (SMILES),IC50 [µM]
1,CCCCCOC1C(OCc2ccccc2)c2cc(NC)ccc2OC1(C)C (centres unmarked) [Compound 5-77],2.5
2,CCCCOC1c2cc(NC)ccc2OC(C)(C)C1OCc1ccc(C(C)(C)C)cc1 (centres unmarked) [Compound 5-51],5.2
3,Cc1ccc(COC2C(OCc3ccccc3)c3cc(NCc4ccccc4)ccc3OC2(C)C)cc1 (centres unmarked) [Compound 5-296],5.85
4,CNc1ccc2c(c1)C(OCCC1CCCCC1)C(OCc1ccc(F)cc1)C(C)(C)O2 (centres unmarked) [Compound 5-98],5.3
5,C#CCOC1C(OCCCC)c2cc(NC)ccc2OC1(C)C (centres unmarked) [Compound 5-64],2.57
6,CC(C)(C)c1ccc(COC2C(OCCc3ccccc3)c3cc(NCc4ccccc4)ccc3OC2(C)C)cc1 (centres unmarked) [Compound 5-307],3.55
7,CC1(C)Oc2ccc(NCc3ccccc3)cc2C(OCc2ccccc2)C1OCc1cccc(F)c1 (centres unmarked) [Compound 5-292],3.25
8,C/C=C/COC1C(OCc2ccccc2)c2cc(NC)ccc2OC1(C)C (centres unmarked) [Compound 5-78],1.14
9,CNc1ccc2c(c1)C(OCc1ccccc1)C(OCc1ccccc1Cl)C(C)(C)O2 (centres unmarked) [Compound 5-70],1.15
10,CCOC1c2cc(NCc3ccc(F)cc3)ccc2OC(C)(C)C1OCc1ccc2ccccc2c1 (centres unmarked) [Compound 5-474],3.45
11,CNc1ccc2c(c1)C(OCCC1CCCCC1)C(OCc1cccc(Cl)c1)C(C)(C)O2 (centres unmarked) [Compound 5-103],5.1
12,CNc1ccc2c(c1)C(OCCC1CCCCC1)C(OCc1cccc(F)c1)C(C)(C)O2 (centres unmarked) [Compound 5-100],3.89
13,CC1(C)Oc2ccc(NCc3ccccc3)cc2C(OCc2ccccc2)C1OCc1ccccc1 (centres unmarked) [Compound 5-289],1.32
14,CC1(C)Oc2ccc(NCc3ccccc3)cc2C(OCc2ccccc2)C1OCc1ccc2ccccc2c1 (centres unmarked) [Compound 5-298],6.07
15,CCOC1c2cc(NCc3ccc(F)cc3)ccc2OC(C)(C)C1OC (centres unmarked) [Compound 5-476],1.35
16,CCOC1c2cc(NCc3ccc(F)cc3)ccc2OC(C)(C)C1OCc1ccc(F)cc1 (centres unmarked) [Compound 5-466],1.2
17,CNc1ccc2c(c1)C(OCc1ccccc1)C(OCc1ccc(C)cc1)C(C)(C)O2 (centres unmarked) [Compound 5-72],7.39
18,CCOC1c2cc(NC)ccc2OC(C)(C)C1OCc1cccc(F)c1 (centres unmarked) [Compound 5-68],1.39
19,CCOC1c2cc(NCc3ccc(F)cc3)ccc2OC(C)(C)C1OCc1ccc(C(C)(C)C)cc1 (centres unmarked) [Compound 5-467],3.6
20,C=CCOC1C(OCc2ccccc2)c2cc(NC)ccc2OC1(C)C (centres unmarked) [Compound 5-79],0.79
